The text below walks through data of PubChem BioAssay AID843 (The Scripps Research Institute Molecular Screening Center, 2007).

For orientation: EC50 means the concentration at which the effect is half-maximal.

The source made the active and inactive calls. No rule for the calls is given here.

This assay concerns CRE-bla reporter cells, beta-lactamase FRET, activation. Nature of the assay: activators of CRE-BLA reporter, dose response, counter-screen for S1P2 agonist project, cell-based, beta-lactamase FRET (AID 843).
On to `COc1cccc(CNC(=O)CN(c2cc(C)cc(C)c2)S(=O)(=O)c2c(C)noc2C)c1`, for which the EC50 was > 50 µM (inactive). On to `O=C(Cc1c[nH]c2ccccc12)Nc1nc2ccccc2[nH]1`, for which the EC50 was > 50 µM (inactive). As to `COc1cc2c(cc1OC)C1=C(C#N)CCC(=O)N1CC2`, the EC50 was 2.96 µM. In the case of `CCOC(=O)c1c(C)n(C)c2ccc(OCC(O)Cn3nc(C)cc3C)cc12` (configuration not stated), the EC50 is > 50 µM (inactive). With `COc1ccccc1CNC(=O)c1c(N)n(CCCN2CCOCC2)c2nc3ccccc3nc12` the figure was 22.9 µM (inactive). With `CCN(CC)c1ccc(NC(=O)Nc2ccccc2C(F)(F)F)cc1`, the EC50 is > 50 µM (inactive).

As to `CCOCCCNc1nc(=S)[nH]c2cc(OC)c(OC)cc12`, the EC50 is > 50 µM (inactive). In the case of `O=c1c(-c2nc3ccccc3s2)cccn1Cc1ccc(Cl)c(Cl)c1`, the EC50 was 3.29 µM. On to `NC(=O)c1ccc(NC(=O)C2CCCO2)cc1` (configuration not stated), for which the EC50 is > 50 µM (inactive). Turning to `O=C(NCC1(c2ccccc2)CCCC1)C(=O)N1CCOCC1`, the EC50 is > 50 µM (inactive). Consider `CCOc1cccc(OCCCCn2ccnc2)c1`, for which the EC50 was > 50 µM (inactive). For the molecule `Cc1ccc(Cn2cccc(-c3nc4ccccc4s3)c2=O)cc1`, the EC50 was 24 µM (inactive). With `CCC(C)NC(=O)c1c(N)n(Cc2ccc3c(c2)OCO3)c2nc3ccccc3nc12` (configuration not stated) the figure was 5.7 µM; with `CC(C)CCNC(=O)c1c(N)n(Cc2ccc3c(c2)OCO3)c2nc3ccccc3nc12`, 6.45 µM.

With `Clc1ccc(N2N=C(c3cccs3)CC2c2ccco2)cc1` (configuration not stated), the EC50 was 3.35 µM.

Turning to `O=C(NCc1ccco1)c1cc2ccc(O)cc2oc1=O`, the EC50 was 12.7 µM (inactive). Consider `O=c1c(-c2nc3ccccc3s2)cccn1Cc1ccc(Cl)cc1`, for which the EC50 is 3.43 µM. On to `CCC(=O)c1cc2c(C)cc(=O)oc2c(C)c1O`, for which the EC50 was > 50 µM (inactive). Regarding `O=C1SC(c2ccccc2)=N/C1=C/c1ccco1`, the EC50 is > 50 µM (inactive). Regarding `COc1ccc(C(c2c[nH]c3ccccc23)c2c[nH]c3ccccc23)cc1O`, the EC50 was > 50 µM (inactive). As to `C=CCn1c(N)cc(=O)nc1SCC(=O)Nc1ccccc1`, the EC50 was > 50 µM (inactive). Regarding `c1ccc(OCCSc2nnnn2-c2ccccc2)cc1`, the EC50 is > 50 µM (inactive). As for `NS(=O)(=O)c1ccc(N2N=C(c3ccc(Br)cc3)CC2c2ccc(F)cc2)cc1` (configuration not stated), the EC50 was 2.69 µM.

With `Cc1cccn2c(=O)c3cc(C(=O)NCCc4ccccc4)c(=N)n(CCCn4ccnc4)c3nc12`, the EC50 was 10.2 µM (inactive). With `Cc1ccc(C2CC(=O)c3cnc(N4CCc5ccccc5C4)nc3C2)cc1` (configuration not stated), the EC50 is > 50 µM (inactive).

Consider `Cc1cc(C(=O)CN2C(=O)CCC2=O)c(C)n1Cc1ccccc1`, for which the EC50 is > 50 µM (inactive). In the case of `CCOC(=O)CN(C(=O)CSc1nnc(COc2ccc(OC)cc2)n1C)c1ccccc1`, the EC50 was > 50 µM (inactive). On to `Cc1cc(C)c(S(=O)(=O)Nc2ccc(O)cc2)cc1C`, for which the EC50 is > 50 µM (inactive). The figure for `O=C(CCC(=O)N1CCc2ccccc21)Nc1ccccc1` is > 50 µM (inactive).

For the molecule `COc1ccc(Cn2c(-c3ccco3)nc3oc4cc(OC)ccc4c(=O)c3c2=O)cc1`, the EC50 is > 50 µM (inactive). In the case of `CN(C)CCCNS(=O)(=O)c1ccc(N2CCC(c3ccc(Cl)cc3)=N2)cc1`, the EC50 is 1.03 µM. With `CCOC(=O)c1cc2ccc(OC)c(OC)c2c(=O)s1` the figure was > 50 µM (inactive); with `COC(=O)c1cn[nH]c1NC(=S)Nc1ccccc1C`, > 50 µM (inactive). As for `Cc1cccc(C(=O)NC2CC3CCCC(C2)N3C(=O)NC2CCCCC2)c1` (configuration not stated), the EC50 was > 50 µM (inactive). On to `Oc1cccc(C(=S)N2CCN(Cc3ccccc3)CC2)c1`, for which the EC50 is > 50 µM (inactive).

For the molecule `CCOC(=O)c1cc2ccc(OC(=O)c3ccco3)cc2oc1=O`, the concentration giving a half-maximal response (EC50) was 8.74 µM.

As for `N#CCN1CCN(CC(=O)Nc2cccc3ccccc23)CC1`, the EC50 is > 50 µM (inactive). Take `COc1ccc2cc(S(=O)(=O)NCCCN3CCOCC3)ccc2c1`: the EC50 is > 50 µM (inactive). With `CC(C)CNC(=O)c1c(N)n(Cc2ccc3c(c2)OCO3)c2nc3ccccc3nc12`, the concentration for a half-maximal effect (EC50) is 5.66 µM. In the case of `O=c1c(-c2nc3ccccc3s2)cccn1Cc1ccccc1`, the concentration giving a half-maximal response (EC50) is 6.82 µM. `COc1cc2c(cc1OC)C1=C(C#N)CCC(=NC(=O)c3ccc(Cl)cc3)N1CC2`: the concentration for a half-maximal effect (EC50) was 1.64 µM. As for `Nc1c(C(=O)NCCCc2ccccc2)c2nc3ccccc3nc2n1Cc1cccs1`, the EC50 is 5.9 µM. On to `Clc1ccc(-c2ccc(/C=N/Nc3cc(N4CCOCC4)nc(N4CCOCC4)n3)o2)cc1`, for which the EC50 was 14.5 µM (inactive). As to `CC(C)n1c(=N)c(C(=O)NCCc2ccccc2)cc2c(=O)n3ccccc3nc21`, the EC50 was 23.6 µM (inactive). Take `O=c1[nH]c(-c2cccs2)nc2ccccc12`: the EC50 is > 50 µM (inactive). Turning to `Cc1cccc2cc(C(c3nnnn3CC3CCCO3)N3CCc4ccccc4C3)c(=O)[nH]c12` (configuration not stated), the EC50 was > 50 µM (inactive). The figure for `Cc1cc(-c2nnc(SCC(=O)NC3CCCC3)o2)no1` is > 50 µM (inactive); for `O=C(Nc1ccccn1)Nc1cccs1` it is > 50 µM (inactive); for `CCC(C)n1c(NC(=O)c2ccccc2)c(C#N)c2nc3ccccc3nc21` (configuration not stated) it is 2.95 µM. Consider `CCCc1nn(-c2cc(Cl)ccc2OC)c2c1C(=O)CCC2`, for which the EC50 is > 50 µM (inactive). The figure for `Cc1ccccc1-n1c(=O)c(C#N)cc2c(=O)n3ccccc3nc21` is 26.3 µM (inactive); for `Cc1cc(C)n2cc(CSc3nnnn3-c3ccc(Cl)cc3)nc2n1` it is > 50 µM (inactive); for `CS(=O)(=O)NCc1nnc(SCC(=O)NC2CCCCC2)n1-c1ccc(F)cc1` it is > 50 µM (inactive).

In the case of `Clc1ccc2nc(N3CCNCC3)nc(-c3ccccc3)c2c1`, the EC50 was 9.98 µM. The figure for `O=C1CCCC(O)=C1C=NCCc1ccccc1` is > 50 µM (inactive). Regarding `O=S(=O)(c1ccc(N2CCC(c3ccc(Cl)cc3)=N2)cc1)N(CCO)CCO`, the EC50 was 9.11 µM. With `c1ccc(-c2nc3ccccn3c2NCc2ccc3c(c2)OCO3)cc1`, the EC50 was > 50 µM (inactive).

Turning to `COCCNC(=O)CN1CCN(C(c2ccccc2)c2ccccc2)CC1`, the EC50 was > 50 µM (inactive). As to `O=S(=O)(Cc1ccc(Cl)cc1)NCC1CCCO1` (configuration not stated), the EC50 was > 50 µM (inactive). On to `Cc1ccc(CNC(=O)CCNC(=O)c2ccco2)cc1`, for which the EC50 was > 50 µM (inactive). Consider `C(=C\c1ccccc1)/CSc1nnc(-c2ccccc2)n1Cc1ccco1`, for which the EC50 is > 50 µM (inactive). With `Cc1cc(Br)ccc1OCCCCNCCO`, the EC50 was > 50 µM (inactive).
